According to ChEMBL document CHEMBL1140365, “Investigation of glycine alpha-ketoamide HCV NS3 protease inhibitors: effect of carboxylic acid isosteres” (Bioorg Med Chem Lett, 2005):
*1 amine or outer side, *2 acyl side, *3 side chain or, on linkers, in order; H or OH if unused. Where a SMILES comes first, the peptide text is derived from it. [ ]: non-standard residue; d: D form. The star is where a group is joined. Abu(ψCOCO) = CC[C@H](N[*:1])C(=O)C(=O)[*:2]; X1 = O=C(C(=O)[*:2])[C@H](CC(F)F)N[*:1]; Pyrazinecarbonyl = O=C(c1cnccn1)*; Cha = N[C@@H](CC1CCCCC1)C(=O)O

These compounds were tested against NS3 (Hepatitis C virus, UniProt A3EZJ3) (assay: Inhibitory concentration against glycine alpha-ketoamide HCV NS3 protease).
Sequence of NS3 (A3EZJ3 whole entry): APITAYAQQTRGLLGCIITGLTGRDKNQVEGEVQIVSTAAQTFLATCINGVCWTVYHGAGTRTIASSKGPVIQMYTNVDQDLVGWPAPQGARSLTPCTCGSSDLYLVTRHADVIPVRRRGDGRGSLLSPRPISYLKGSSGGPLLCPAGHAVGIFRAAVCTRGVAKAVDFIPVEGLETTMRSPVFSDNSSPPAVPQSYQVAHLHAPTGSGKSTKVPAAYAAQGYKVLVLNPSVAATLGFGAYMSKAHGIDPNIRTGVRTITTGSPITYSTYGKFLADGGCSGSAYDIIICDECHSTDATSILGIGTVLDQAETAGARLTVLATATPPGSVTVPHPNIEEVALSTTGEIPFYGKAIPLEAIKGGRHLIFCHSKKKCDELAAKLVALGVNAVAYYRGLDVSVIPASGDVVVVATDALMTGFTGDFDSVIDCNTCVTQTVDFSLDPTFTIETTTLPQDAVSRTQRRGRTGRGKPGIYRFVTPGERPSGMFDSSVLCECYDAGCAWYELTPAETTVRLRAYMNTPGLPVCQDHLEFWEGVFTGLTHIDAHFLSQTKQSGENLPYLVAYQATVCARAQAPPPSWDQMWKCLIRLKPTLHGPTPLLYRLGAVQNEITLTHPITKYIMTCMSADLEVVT
Design: species or system Hepacivirus hominis
In the case of CC[C@H](C)[C@H](NC(=O)[C@H](CC(C)C)NC(=O)c1cnccn1)C(=O)N[C@@H](CC1CCCCC1)C(=O)N[C@@H](CC(F)F)C(=O)C(=O)NCc1nn[nH]n1, the IC50 is reported as 40 nM. With CC[C@H](NC(=O)[C@H](CC1CCCCC1)NC(=O)[C@@H](NC(=O)[C@H](CC(C)C)NC(=O)c1cnccn1)[C@@H](C)CC)C(=O)C(=O)NCS(=O)(=O)O the IC50 was 220 nM. With CC[C@H](NC(=O)[C@H](CC1CCCCC1)NC(=O)[C@@H](NC(=O)[C@H](CC(C)C)NC(=O)c1cnccn1)[C@@H](C)CC)C(=O)C(=O)NCc1nn[nH]n1 the IC50 was 460 nM. CC[C@H](NC(=O)[C@H](CC1CCCCC1)NC(=O)[C@@H](NC(=O)[C@H](CC(C)C)NC(=O)c1cnccn1)[C@@H](C)CC)C(=O)C(=O)NCC(=O)NS(=O)(=O)c1cccc([N+](=O)[O-])c1 gave an IC50 of 410 nM. Compound CC[C@H](NC(=O)[C@H](CC1CCCCC1)NC(=O)[C@@H](NC(=O)[C@H](CC(C)C)NC(=O)c1cnccn1)[C@@H](C)CC)C(=O)C(=O)NCC(=O)NS(=O)(=O)c1ccc2ccccc2c1 has an IC50 of 1200 nM. In the case of CC[C@H](NC(=O)[C@H](CC1CCCCC1)NC(=O)[C@@H](NC(=O)[C@H](CC(C)C)NC(=O)c1cnccn1)[C@@H](C)CC)C(=O)C(=O)NCC(=O)NS(=O)(=O)c1cccc(Cl)c1, the IC50 is reported as 250 nM. CC[C@H](NC(=O)[C@H](CC1CCCCC1)NC(=O)[C@@H](NC(=O)[C@H](CC(C)C)NC(=O)c1cnccn1)[C@@H](C)CC)C(=O)C(=O)NCC(=O)NS(=O)(=O)Cc1ccccc1 gave an IC50 of 12000 nM. With CC[C@H](NC(=O)[C@H](CC1CCCCC1)NC(=O)[C@@H](NC(=O)[C@H](CC(C)C)NC(=O)c1cnccn1)[C@@H](C)CC)C(=O)C(=O)NCC(=O)NS(=O)(=O)c1cc(Cl)cc(Cl)c1 the IC50 was 130 nM. Work on CC[C@H](NC(=O)[C@H](CC1CCCCC1)NC(=O)[C@@H](NC(=O)[C@H](CC(C)C)NC(=O)c1cnccn1)[C@@H](C)CC)C(=O)C(=O)NCC(=O)NS(=O)(=O)c1ccccc1 yielded an IC50 of 8900 nM. For CC[C@H](C)[C@H](NC(=O)[C@H](CC(C)C)NC(=O)c1cnccn1)C(=O)N[C@@H](CC1CCCCC1)C(=O)N[C@@H](CC(F)F)C(=O)C(=O)NCC(=O)NS(=O)(=O)c1cccc(-c2ccccc2)c1, the IC50 was 60 nM. For CC[C@H](NC(=O)[C@H](CC1CCCCC1)NC(=O)[C@@H](NC(=O)[C@H](CC(C)C)NC(=O)c1cnccn1)[C@@H](C)CC)C(=O)C(=O)NCC(=O)NS(=O)(=O)c1nnc(NC(C)=O)s1, the IC50 was 250 nM. In the case of CCCCCC(=O)Nc1nnc(S(=O)(=O)NC(=O)CNC(=O)C(=O)[C@H](CC(F)F)NC(=O)[C@H](CC2CCCCC2)NC(=O)[C@@H](NC(=O)[C@H](CC(C)C)NC(=O)c2cnccn2)[C@@H](C)CC)s1, the IC50 is reported as 20 nM. In the case of CC[C@H](C)[C@H](NC(=O)[C@H](CC(C)C)NC(=O)c1cnccn1)C(=O)N[C@@H](CC1CCCCC1)C(=O)N[C@@H](CC(F)F)C(=O)C(=O)NCC(=O)NS(=O)(=O)c1nnc(NC(=O)c2ccc(Cl)cc2)s1, the IC50 is reported as 20 nM. Work on CC[C@H](NC(=O)[C@H](CC1CCCCC1)NC(=O)[C@@H](NC(=O)[C@H](CC(C)C)NC(=O)c1cnccn1)[C@@H](C)CC)C(=O)C(=O)NCC(=O)NS(=O)(=O)c1ccc(-c2ccccc2)cc1 yielded an IC50 of 2400 nM. CC[C@H](NC(=O)[C@H](CC1CCCCC1)NC(=O)[C@@H](NC(=O)[C@H](CC(C)C)NC(=O)c1cnccn1)[C@@H](C)CC)C(=O)C(=O)NCC(=O)NS(=O)(=O)c1cc(C(=O)O)ccc1Cl showed an IC50 of 110 nM. With CC[C@H](NC(=O)[C@H](CC1CCCCC1)NC(=O)[C@@H](NC(=O)[C@H](CC(C)C)NC(=O)c1cnccn1)[C@@H](C)CC)C(=O)C(=O)NCC(=O)NS(=O)(=O)c1cccc(-c2ccccc2)c1 the IC50 was 640 nM. In the case of CC[C@H](NC(=O)[C@H](CC1CCCCC1)NC(=O)[C@@H](NC(=O)[C@H](CC(C)C)NC(=O)c1cnccn1)[C@@H](C)CC)C(=O)C(=O)NCC(=O)NS(=O)(=O)c1ccc([N+](=O)[O-])cc1, the IC50 is reported as 920 nM. With CC[C@H](NC(=O)[C@H](CC1CCCCC1)NC(=O)[C@@H](NC(=O)[C@H](CC(C)C)NC(=O)c1cnccn1)[C@@H](C)CC)C(=O)C(=O)NCC(=O)NS(=O)(=O)C(F)(F)F the IC50 was 470 nM. In the case of CC[C@H](C)[C@H](NC(=O)[C@H](CC(C)C)NC(=O)c1cnccn1)C(=O)N[C@@H](CC1CCCCC1)C(=O)N[C@@H](CC(F)F)C(=O)C(=O)NCC(=O)NS(=O)(=O)c1cc(Cl)cc(S(=O)(=O)NC(=O)c2ccccc2)c1, the IC50 is reported as 60 nM. For CC[C@H](NC(=O)[C@H](CC1CCCCC1)NC(=O)[C@@H](NC(=O)[C@H](CC(C)C)NC(=O)c1cnccn1)[C@@H](C)CC)C(=O)C(=O)NCC(=O)NS(=O)(=O)c1cc(Cl)cc(S(=O)(=O)NC(=O)c2ccccc2)c1, the IC50 was 120 nM. For CC[C@H](C)[C@H](NC(=O)[C@H](CC(C)C)NC(=O)c1cnccn1)C(=O)N[C@@H](CC1CCCCC1)C(=O)N[C@@H](CC(F)F)C(=O)C(=O)NCC(=O)NS(=O)(=O)c1cc(Cl)cc(S(N)(=O)=O)c1, the IC50 was 50 nM. CC[C@H](NC(=O)[C@H](CC1CCCCC1)NC(=O)[C@@H](NC(=O)[C@H](CC(C)C)NC(=O)c1cnccn1)[C@@H](C)CC)C(=O)C(=O)NCC(=O)NS(C)(=O)=O gave an IC50 of 25000 nM. CC[C@H](NC(=O)[C@H](CC1CCCCC1)NC(=O)[C@@H](NC(=O)[C@H](CC(C)C)NC(=O)c1cnccn1)[C@@H](C)CC)C(=O)C(=O)NCC(=O)O (Pyrazinecarbonyl-LI[Cha][Abu(ψCOCO)]G-OH) was tested, and the IC50 was 230 nM. CC[C@H](C)[C@H](NC(=O)[C@H](CC(C)C)NC(=O)c1cnccn1)C(=O)N[C@@H](CC1CCCCC1)C(=O)N[C@@H](CC(F)F)C(=O)C(=O)NCC(=O)O (Pyrazinecarbonyl-LI[Cha][X1]G-OH) gave an IC50 of 60 nM.
